Test results from ChEMBL document CHEMBL2440076, “New triarylpyrazoles as broad-spectrum anticancer agents: design, synthesis, and biological evaluation” (Eur J Med Chem, 2013).

Key:
Type in all cases: functional
Malme-3M = assay: Growth inhibition of human MALME-3M cells assessed as cell growth at 3X10'-7 M after 48 hrs by sulforhodamine B assay; details: read-out: Activity
NCI-H23 = assay: Growth inhibition of human NCI-H23 cells assessed as cell growth at 3X10'-7 M after 48 hrs by sulforhodamine B assay; details: NCI-H23, 48 h, read-out: Activity
SR = assay: Growth inhibition of human SR cells assessed as cell growth at 3X10'-7 M after 48 hrs by sulforhodamine B assay; details: read-out: Activity
RPMI-8226 [1] = assay: Growth inhibition of human RPMI8226 cells assessed as cell growth at 3X10'-7 M after 48 hrs by sulforhodamine B assay; details: RPMI-8226, 48 h, read-out: Activity
MDA-MB-468 [2] = assay: Growth inhibition of human MDA-MB-468 cells assessed as cell growth at 3X10'-8 M after 48 hrs by sulforhodamine B assay; details: MDA-MB-468, 48 h, read-out: Activity
RXF 393 [3] = assay: Growth inhibition of human RXF393 cells assessed as cell growth at 3X10'-8 M after 48 hrs by sulforhodamine B assay; details: RXF 393, 48 h, read-out: Activity
A498 = assay: Growth inhibition of human A498 cells assessed as cell growth at 3X10'-8 M after 48 hrs by sulforhodamine B assay; details: A498, 48 h, read-out: Activity
LOX IMVI = assay: Growth inhibition of human LOXIMVI cells assessed as cell growth at 3X10'-8 M after 48 hrs by sulforhodamine B assay; details: read-out: Activity
COLO 205 = assay: Growth inhibition of human COLO205 cells assessed as cell growth at 3X10'-8 M after 48 hrs by sulforhodamine B assay; details: COLO 205, 48 h, read-out: Activity
UO-31 = assay: Growth inhibition of human UO31 cells assessed as cell growth at 3X10'-5 M after 48 hrs by sulforhodamine B assay; details: UO-31, 48 h, read-out: Activity
ACHN = assay: Growth inhibition of human ACHN cells assessed as cell growth at 3X10'-5 M after 48 hrs by sulforhodamine B assay; details: read-out: Activity
786-0 [4] = assay: Growth inhibition of human 786-0 cells assessed as cell growth at 3X10'-9 M after 48 hrs by sulforhodamine B assay; details: 786-0, 48 h, read-out: Activity
SW-620 = assay: Growth inhibition of human SW620 cells assessed as cell growth at 3X10'-5 M after 48 hrs by sulforhodamine B assay; details: SW-620, 48 h, read-out: Activity
HCT-15 = assay: Growth inhibition of human HCT15 cells assessed as cell growth at 3X10'-5 M after 48 hrs by sulforhodamine B assay; details: HCT-15, 48 h, read-out: Activity
MOLT-4 [5] = assay: Growth inhibition of human MOLT4 cells assessed as cell growth at 3X10'-5 M after 48 hrs by sulforhodamine B assay; details: MOLT-4, 48 h, read-out: Activity
BT-549 = assay: Growth inhibition of human BT549 cells assessed as cell growth at 3X10'-6 M after 48 hrs by sulforhodamine B assay; details: BT-549, 48 h, read-out: Activity
PC-3 = assay: Growth inhibition of human PC3 cells assessed as cell growth at 3X10'-6 M after 48 hrs by sulforhodamine B assay; details: PC-3, 48 h, read-out: Activity
SNB-19 = assay: Growth inhibition of human SNB19 cells assessed as cell growth at 3X10'-9 M after 48 hrs by sulforhodamine B assay; details: SNB-19, 48 h, read-out: Activity
KM12 = assay: Growth inhibition of human KM12 cells assessed as cell growth at 3X10'-9 M after 48 hrs by sulforhodamine B assay; details: KM12, 48 h, read-out: Activity
HT-29 = assay: Growth inhibition of human HT-29 cells assessed as cell growth at 3X10'-9 M after 48 hrs by sulforhodamine B assay; details: HT-29, 48 h, read-out: Activity
RPMI-8226 [6] = assay: Growth inhibition of human RPMI8226 cells assessed as cell growth at 3X10'-9 M after 48 hrs by sulforhodamine B assay; details: RPMI-8226, 48 h, read-out: Activity
786-0 [7] = assay: Growth inhibition of human 786-0 cells assessed as cell growth at 3X10'-6 M after 48 hrs by sulforhodamine B assay; details: 786-0, 48 h, read-out: Activity
UACC-257 = assay: Growth inhibition of human UACC257 cells assessed as cell growth at 3X10'-6 M after 48 hrs by sulforhodamine B assay; details: UACC-257, 48 h, read-out: Activity
[8] = Growth inhibition of human HCC2998 cells assessed as cell growth at 3X10'-6 M after 48 hrs by sulforhodamine B assay; details: HCC 2998, 48 h, read-out: Activity
RXF 393 [9] = assay: Growth inhibition of human RXF393 cells assessed as cell growth at 3X10'-7 M after 48 hrs by sulforhodamine B assay; details: RXF 393, 48 h, read-out: Activity
SF-295 = assay: Growth inhibition of human SF295 cells assessed as cell growth at 3X10'-5 M after 48 hrs by sulforhodamine B assay; details: SF-295, 48 h, read-out: Activity
HL-60(TB) = assay: Growth inhibition of human HL-60(TB) cells assessed as cell growth at 3X10'-7 M after 48 hrs by sulforhodamine B assay; details: HL-60, 48 h, read-out: Activity
MOLT-4 [10] = assay: Growth inhibition of human MOLT4 cells assessed as cell growth at 5X10'-9 M after 48 hrs by sulforhodamine B assay; details: MOLT-4, 48 h, read-out: Activity
A549 = assay: Growth inhibition of human A549/ATCC cells assessed as cell growth at 5X10'-6 M after 48 hrs by sulforhodamine B assay; details: A549, 48 h, read-out: Activity
MDA-MB-468 [11] = assay: Growth inhibition of human MDA-MB-468 cells assessed as cell growth at 5X10'-7 M after 48 hrs by sulforhodamine B assay; details: MDA-MB-468, 48 h, read-out: Activity
MDA-MB-231 = assay: Growth inhibition of human MDA-MB-231 cells assessed as cell growth at 5X10'-7 M after 48 hrs by sulforhodamine B assay; details: MDA-MB-231, 48 h, read-out: Activity
DU-145 = assay: Growth inhibition of human DU145 cells assessed as cell growth at 5X10'-8 M after 48 hrs by sulforhodamine B assay; details: DU-145, 48 h, read-out: Activity
RXF 393 [12] = assay: Growth inhibition of human RXF393 cells assessed as cell growth at 5X10'-8 M after 48 hrs by sulforhodamine B assay; details: RXF 393, 48 h, read-out: Activity
SF-268 = assay: Growth inhibition of human SF268 cells assessed as cell growth at 5X10'-8 M after 48 hrs by sulforhodamine B assay; details: SF-268, 48 h, read-out: Activity
CCRF-CEM = assay: Growth inhibition of human CCRF-CEM cells assessed as cell growth at 5X10'-8 M after 48 hrs by sulforhodamine B assay; details: read-out: Activity
SK-MEL-5 = assay: Growth inhibition of human SK-MEL-5 cells assessed as cell growth at 5X10'-9 M after 48 hrs by sulforhodamine B assay; details: SK-MEL-5, 48 h, read-out: Activity

SMILES | growth at 0.3 µM (Malme-3M) [%] | growth at 0.3 µM (NCI-H23) [%] | growth at 0.3 µM (SR) [%] | growth at 0.3 µM (RPMI-8226 [1]) [%] | growth at 0.03 µM (MDA-MB-468 [2]) [%] | growth at 0.03 µM (RXF 393 [3]) [%] | growth at 0.03 µM (A498) [%] | growth at 0.03 µM (LOX IMVI) [%] | growth at 0.03 µM (COLO 205) [%] | growth at 30 µM (UO-31) [%] | growth at 30 µM (ACHN) [%] | growth at 0.003 µM (786-0 [4]) [%] | growth at 30 µM (SW-620) [%] | growth at 30 µM (HCT-15) [%] | growth at 30 µM (MOLT-4 [5]) [%] | growth at 3 µM (BT-549) [%] | growth at 3 µM (PC-3) [%] | growth at 0.003 µM (SNB-19) [%] | growth at 0.003 µM (KM12) [%] | growth at 0.003 µM (HT-29) [%] | also measured
O=C(Nc1cccc(-n2cc(-c3ccncc3)c(-c3ccc(Cl)c(O)c3)n2)c1)Nc1ccc(Cl)c(Cl)c1 | 102 | 102 | 97 | 90 | 90 | 100 | 95 | 91 | 97 | 7 | 1 | 97 | 1 | -1 | 6 | 28 | 6 | 98 | 97 | 100 | growth at 0.003 µM (RPMI-8226 [6]): 103%; growth at 3 µM (786-0 [7]): 74%; growth at 3 µM (UACC-257): -1%; growth at 3 µM [8]: 47%; growth at 0.3 µM (RXF 393 [9]): 83%
O=C(Nc1cccc(-n2cc(-c3ccncc3)c(-c3ccc(Cl)c(O)c3)n2)c1)Nc1cccc(C(F)(F)F)c1 | 87 | 96 | 100 | 90 | 89 | 97 | 83 | 95 | 99 | 11 | 7 | 98 | 8 | 6 | 8 | 79 | 13 | 94 | 94 | 99 | growth at 30 µM (SF-295): -53%; growth at 0.003 µM (RPMI-8226 [6]): 99%; growth at 3 µM (786-0 [7]): 58%; growth at 3 µM (UACC-257): 60%; growth at 3 µM [8]: 76%; growth at 0.3 µM (RXF 393 [9]): 88%
O=C(Nc1cccc(-n2cc(-c3ccncc3)c(-c3ccc(Cl)c(O)c3)n2)c1)Nc1ccc(Cl)c(C(F)(F)F)c1 | 77 | 93 | 81 | 73 | 85 | 93 | 91 | 99 | 100 | -28 | 2 | 98 | -43 | -2 | -32 | 12 | -15 | 96 | 101 | 97 | growth at 0.3 µM (HL-60(TB)): 138%; growth at 30 µM (SF-295): -41%; growth at 0.003 µM (RPMI-8226 [6]): 96%; growth at 3 µM (786-0 [7]): 19%; growth at 3 µM (UACC-257): -22%; growth at 3 µM [8]: 7%; growth at 0.3 µM (RXF 393 [9]): 69%
O=C(Nc1cccc(-n2cc(-c3ccncc3)c(-c3ccc(Cl)c(O)c3)n2)c1)Nc1cc(C(F)(F)F)cc(C(F)(F)F)c1 | – | – | – | – | – | – | – | – | – | – | – | – | – | – | – | – | – | – | – | – | growth at 0.005 µM (MOLT-4 [10]): 106%; growth at 5 µM (A549): -33%; growth at 0.5 µM (MDA-MB-468 [11]): 37%; growth at 0.5 µM (MDA-MB-231): 74%; growth at 0.05 µM (DU-145): 109%; growth at 0.05 µM (RXF 393 [12]): 89%; growth at 0.05 µM (SF-268): 103%; growth at 0.05 µM (CCRF-CEM): 92%; growth at 0.005 µM (SK-MEL-5): 104%
O=C(Nc1cccc(-n2cc(-c3ccncc3)c(-c3ccc(Cl)c(O)c3)n2)c1)c1ccc(N2CCOCC2)c(C(F)(F)F)c1 | – | – | – | – | – | – | – | – | – | – | – | – | – | – | – | – | – | – | – | – | growth at 0.005 µM (MOLT-4 [10]): 99%; growth at 5 µM (A549): 39%; growth at 0.5 µM (MDA-MB-468 [11]): 92%; growth at 0.5 µM (MDA-MB-231): 67%; growth at 0.05 µM (DU-145): 97%; growth at 0.05 µM (RXF 393 [12]): 101%; growth at 0.05 µM (SF-268): 93%; growth at 0.05 µM (CCRF-CEM): 100%; growth at 0.005 µM (SK-MEL-5): 101%
